Earlier results in patent US20130137635A1, “TRYPTOPHAN HYDROXYLASE INHIBITORS FOR THE TREATMENT OF METASTATIC BONE DISEASE” (LEXICON PHARMACEUTICALS, INC., priority 2010, published 2013).

Columns and labels:
[1] = system: cholangiocarcinoma tumors; details: in vivo xenograft model of cholangiocarcinoma tumors; pCPA treatment
[2] = system: carcinoid syndrome; details: patients; reported in the 1960's

For `N[C@@H](Cc1ccc(Cl)cc1)C(=O)O` (racemic) [pCPA, para-chlorophenylalanine], the tumor growth [1] is listed as “suppressed tumor growth”, the “effect on symptoms of carcinoid syndrome” value [2] is listed as “alleviated some of the symptoms of carcinoid syndrome” and the “side effects on administration” value [2] is listed as “unacceptable side effects”.
